pIC50: −log10 of the molar value. One block for each molecule: values may come before it. Activity calls are given as the source filed them. The rule behind the calls is not given here.
Legend:
[1] = tested on: Vero; assay: Cytotoxicity against african green monkey Vero cells after 72 hrs; type: cell-based; conditions: Chlorocebus sabaeus
[2] = tested on: Trypanosoma cruzi; assay: (§1) Antiparasitic activity against trypomastigote form of Trypanosoma cruzi IRHOD/CO/2008/SN3 infected in BALB/c mouse acute chagas disease model assessed as parasitemia reactivation at 25 mg/kg, ip after 60 days immunosuppressed with cyclophosphamide monohydrate measured up to day 120 post infection (reference value: 80.3%); type: functional; conditions: route intraperitoneal
[3] = molecular target: Superoxide dismutase [Cu-Zn] (Homo sapiens, UniProt P00441); assay: Inhibition of CuZn-SOD in human erythrocytes; type: cell-based
[4] = Selectivity index, ratio of IC50 for african green monkey Vero cells to IC50 for trypomastigote form of Trypanosoma cruzi IRHOD/CO/2008/SN3; type: toxicity, cell-based; conditions: read-out: Ratio IC50
[5] = tested on: Mus musculus; assay: Toxicity in Trypanosoma cruzi IRHOD/CO/2008/SN3 infected in BALB/c mouse acute chagas disease model assessed as heart marker LDH level at 25 mg/kg, ip after 60 days immunosuppressed with cyclophosphamide monohydrate measured up to day 120 post infection […]; type: organism-based; set-up: dose 25 mg/kg, route intraperitoneal; conditions: in vivo, 1440 h
[6] = tested on: Trypanosoma cruzi; assay: Trypanocidal activity against epimastigote Trypanosoma cruzi IRHOD/CO/2008/SN3; type: functional, organism-based
[7] = tested on: Mus musculus; assay: Toxicity in Trypanosoma cruzi IRHOD/CO/2008/SN3 infected in BALB/c mouse acute chagas disease model assessed as liver marker ALT/GPT level at 25 mg/kg, ip after 60 days immunosuppressed with cyclophosphamide monohydrate measured up to day 120 post infection […]; type: organism-based; set-up: dose 25 mg/kg, route intraperitoneal; conditions: in vivo, 1440 h
[8] = tested on: Trypanosoma cruzi; assay: Increase in succinate catabolites in epimastigote Trypanosoma cruzi at IC25 concentration after 96 hrs; type: functional
[9] = tested on: Mus musculus; assay: Toxicity in Trypanosoma cruzi IRHOD/CO/2008/SN3 infected in BALB/c mouse acute chagas disease model assessed as heart marker CK-MB level at 25 mg/kg, ip after 60 days immunosuppressed with cyclophosphamide monohydrate measured up to day 120 post infection […]; type: organism-based; set-up: dose 25 mg/kg, route intraperitoneal; conditions: in vivo, 1440 h
[10] = tested on: Trypanosoma cruzi; assay: Inhibition of Fe-SOD in Trypanosoma cruzi epimastigote at 80 uM
[11] = tested on: Trypanosoma cruzi; assay: Decrease in D-lactate catabolites in epimastigote Trypanosoma cruzi at IC25 concentration after 96 hrs; type: functional
[12] = tested on: Trypanosoma cruzi; assay: Decrease in pyruvate catabolites in epimastigote Trypanosoma cruzi at IC25 concentration after 96 hrs; type: functional
[13] = Selectivity index, ratio of IC50 for african green monkey Vero cells to IC50 for epimastigote Trypanosoma cruzi IRHOD/CO/2008/SN3; type: toxicity, cell-based; conditions: read-out: Ratio IC50
[14] = tested on: Trypanosoma cruzi; assay: as §1, with “heart free from parasite” for “parasitemia reactivation”, “by PCR analysis” for “(reference value: 80.3%)”; type: functional; conditions: route intraperitoneal
[15] = tested on: Mus musculus; assay: Toxicity in Trypanosoma cruzi IRHOD/CO/2008/SN3 infected in BALB/c mouse acute chagas disease model assessed as alkalyne phosphatase level at 25 mg/kg, ip after 60 days immunosuppressed with cyclophosphamide monohydrate measured up to day 120 post infection […]; type: organism-based; set-up: dose 25 mg/kg, route intraperitoneal; conditions: in vivo, 1440 h
[16] = tested on: Mus musculus; assay: Toxicity in Trypanosoma cruzi IRHOD/CO/2008/SN3 infected in BALB/c mouse acute chagas disease model assessed as kidney marker uric acid level at 25 mg/kg, ip after 60 days immunosuppressed with cyclophosphamide monohydrate measured up to day 120 post infection […]; type: organism-based; set-up: dose 25 mg/kg, route intraperitoneal; conditions: in vivo, 1440 h
[17] = tested on: Trypanosoma cruzi; assay: Trypanocidal activity against epimastigote Trypanosoma cruzi IRHOD/CO/2008/SN3 assessed as morphological disturbance at IC25 concentration; type: functional, organism-based
[18] = tested on: Mus musculus; assay: Toxicity in Trypanosoma cruzi IRHOD/CO/2008/SN3 infected in BALB/c mouse acute chagas disease model assessed as total bilirubuin level at 25 mg/kg, ip after 60 days immunosuppressed with cyclophosphamide monohydrate measured up to day 120 post infection […]; type: organism-based; set-up: dose 25 mg/kg, route intraperitoneal; conditions: in vivo, 1440 h
[19] = tested on: Trypanosoma cruzi; assay: Decrease in L-alanine catabolites in epimastigote Trypanosoma cruzi at IC25 concentration after 96 hrs; type: functional
[20] = tested on: Trypanosoma cruzi; assay: Trypanocidal activity against intracellular amastigote form of Trypanosoma cruzi IRHOD/CO/2008/SN3 in african green monkey Vero cells; type: functional, organism-based; conditions: IRHOD/CO/2008/SN3, Vero
[21] = Selectivity index, ratio of IC50 for african green monkey Vero cells to IC50 for intracellular amastigote form of Trypanosoma cruzi IRHOD/CO/2008/SN3; type: toxicity, cell-based; conditions: read-out: Ratio IC50
[22] = tested on: Mus musculus; assay: Toxicity in Trypanosoma cruzi IRHOD/CO/2008/SN3 infected in BALB/c mouse acute chagas disease model assessed as kidney marker urea level at 25 mg/kg, ip after 60 days immunosuppressed with cyclophosphamide monohydrate measured up to day 120 post infection […]; type: organism-based; set-up: dose 25 mg/kg, route intraperitoneal; conditions: in vivo, 1440 h
[23] = tested on: Mus musculus; assay: Toxicity in Trypanosoma cruzi IRHOD/CO/2008/SN3 infected in BALB/c mouse acute chagas disease model assessed as liver marker AST/GOT level at 25 mg/kg, ip after 60 days immunosuppressed with cyclophosphamide monohydrate measured up to day 120 post infection […]; type: organism-based; set-up: dose 25 mg/kg, route intraperitoneal; conditions: in vivo, 1440 h
[24] = tested on: Trypanosoma cruzi; assay: Trypanocidal activity against epimastigote Trypanosoma cruzi IRHOD/CO/2008/SN3 infected in african green monkey Vero cells assessed as decrease in average number of amastigotes per infected cell at IC25 concentration on day 10; type: functional; set-up: scale not given: the % may be the effect or the level left
[25] = tested on: Trypanosoma cruzi; assay: Decrease in acetate catabolites in epimastigote Trypanosoma cruzi at IC25 concentration after 96 hrs; type: functional
[26] = tested on: Trypanosoma cruzi; assay: Antiparasitic activity against trypomastigote form of Trypanosoma cruzi IRHOD/CO/2008/SN3 infected in BALB/c mouse acute chagas disease model assessed as parasite reduction in blood; type: functional, organism-based; conditions: IRHOD/CO/2008/SN3, Blood
[27] = tested on: Trypanosoma cruzi; assay: Trypanocidal activity against epimastigote Trypanosoma cruzi IRHOD/CO/2008/SN3 infected in african green monkey Vero cells assessed as decrease in rate of infection at IC25 concentration on day 10; type: functional
[28] = Inhibition of Fe-SOD in Trypanosoma cruzi epimastigote
[29] = tested on: Trypanosoma cruzi; assay: Antiparasitic activity against trypomastigote form of Trypanosoma cruzi IRHOD/CO/2008/SN3 infected in BALB/c mouse acute chagas disease model assessed as parasite reduction in blood at 25 mg/kg, ip measured on day 40 post infection; type: functional; conditions: IRHOD/CO/2008/SN3, Blood, 960 h, route intraperitoneal
[30] = tested on: Trypanosoma brucei; assay: Antitrypanosomal activity against trypomastigote Trypanosoma brucei Squib-427 strain cultured in MRC-5 cells assessed as parasite growth after 7 days by beta-galactosidase assay; type: functional, organism-based; conditions: Squib-427, MRC5, 168 h
[31] = Selectivity index, ratio of IC50 for human MRC5 cells to IC50 for Trypanosoma brucei Squib-427; type: toxicity, cell-based; conditions: read-out: Ratio IC50
[32] = Selectivity index, ratio of IC50 for human MRC5 cells to IC50 for Plasmodium falciparum 2/K 1-strain; type: toxicity, cell-based; conditions: read-out: Ratio IC50
[33] = tested on: Plasmodium falciparum; assay: Antiplasmodial activity against chloroquine-resistant Plasmodium falciparum 2/K1-strain cultured in human red blood cells assessed as infected cells after 72 hrs by malstat method; type: functional, organism-based; conditions: 2/K1, 72 h
[34] = tested on: Leishmania major; assay: Antileishmanial activity against Leishmania major; type: functional, organism-based
[35] = tested on: Leishmania donovani; assay: Antileishmanial activity against intracellular amastigote form of Leishmania donovani; type: functional, organism-based
[36] = tested on: Trypanosoma cruzi; assay: Antiparasitic activity against trypomastigote form of Trypanosoma cruzi IRHOD/CO/2008/SN3 infected in BALB/c mouse acute chagas disease model assessed as parasite reduction in blood at 5 mg/kg, ip measured on day 40 post infection; type: functional; set-up: scale not given: the % may be the effect or the level left; conditions: route intraperitoneal
[37] = tested on: Trypanosoma cruzi; assay: as §1, with “5” for “25”; type: functional; conditions: route intraperitoneal
[38] = tested on: L6; assay: Cytotoxicity against rat L6 cells; type: cell-based
[39] = tested on: Leishmania donovani; assay: Antileishmanial activity against intracellular amastigote stage of Leishmania donovani; type: functional, organism-based
[40] = tested on: Trypanosoma cruzi; assay: Increase in acetate catabolites in epimastigote Trypanosoma cruzi at IC25 concentration after 96 hrs; type: functional
[41] = tested on: Trypanosoma cruzi; assay: Increase in L-alanine catabolites in epimastigote Trypanosoma cruzi at IC25 concentration after 96 hrs; type: functional
[42] = tested on: Trypanosoma cruzi; assay: Increase in D-lactate catabolites in epimastigote Trypanosoma cruzi at IC25 concentration after 96 hrs; type: functional
[43] = tested on: Trypanosoma cruzi; assay: Increase in pyruvate catabolites in epimastigote Trypanosoma cruzi at IC25 concentration after 96 hrs; type: functional

Sequence of Superoxide dismutase [Cu-Zn] (P00441 whole entry): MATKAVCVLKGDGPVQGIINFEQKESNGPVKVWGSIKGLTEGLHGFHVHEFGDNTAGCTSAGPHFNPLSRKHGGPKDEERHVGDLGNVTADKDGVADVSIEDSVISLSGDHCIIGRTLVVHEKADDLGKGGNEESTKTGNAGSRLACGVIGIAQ

SMILES: CC(C)c1cc2c(cc1O)[C@@]1(C)CCC[C@@](C)(CO)[C@@H]1[C@@H](O)C2=O
- pIC50 [1]: 3.65
- Activity [2]: 9.8%
- pIC50 [3]: 4.25
- selectivity ratio [4]: 3.7
- Activity [5]: > 10%
- pIC50 [6]: 4.73
- Activity [7]: < 10%
- Activity [8]: 17.1%
- Activity [9]: < 10%
- inhibition [10]: 100%
- inhibition (INH) [11]: 6.4%
- inhibition (INH) [12]: 1.4%
- selectivity ratio [13]: 11.8
- Activity [14]: 50%
- Activity [15]: < 10%
- Activity [16]: < 10%
- Activity [17]: Active
- Activity [18]: < 10%
- inhibition (INH) [19]: 7.7%
- pIC50 [20]: 5.15
- selectivity ratio [21]: 31.4
- Activity [22]: < 10%
- Activity [23]: > 10%
- Activity [24]: 38%
- inhibition (INH) [25]: 0.3%
- pIC50 [26]: 4.22
- inhibition (INH) [27]: 80%
- pIC50 [28]: 4.38
- inhibition in vivo at 25 mg/kg [29]: 45%

SMILES: CC(C)C1=CC2=C[C@H](O)[C@H]3C(C)(C)C(O)C=C[C@]3(C)C2=C(O)C1=O (some centres not stated)
- pIC50 [30]: 5.72
- selectivity ratio [31]: 50.5
- selectivity ratio [32]: 10.4
- pIC50 [33]: 5.04

- pIC50 [34]: 6.74
- pIC50 [35]: 6.92
SMILES: CC(C)C1=CC(=O)C2=C(CC[C@H]3C(C)(C)CCC[C@]23C)C1=O

SMILES: CC(=O)OC[C@@]1(C)CCC[C@]2(C)c3cc(O)c(C(C)C)cc3C(=O)C[C@@H]12
- pIC50 [1]: 4.14
- pIC50 [6]: 4.58
- selectivity ratio [13]: 2.8
- pIC50 [20]: 4.59
- selectivity ratio [21]: 2.8

SMILES: CC(C)c1cc2c(cc1O)[C@@]1(C)CCCC(C)(C)[C@@H]1CC2=O [SUGIOL]
- pIC50 [1]: 4.34
- pIC50 [6]: 4.48
- selectivity ratio [13]: 1.37
- pIC50 [20]: 4.61
- selectivity ratio [21]: 1.84

SMILES: O=C(Cn1ccnc1[N+](=O)[O-])NCc1ccccc1 [BENZNIDAZOLE]
- Activity [36]: 16.7%
- Activity [37]: 36%

SMILES: CC(C)c1cc2c(c(Br)c1O)[C@@]1(C)CCCC(C)(C)[C@@H]1CC2
- pIC50 [1]: 3.74
- pIC50 [6]: 4.30
- selectivity ratio [13]: 3.69
- pIC50 [20]: 4.38
- selectivity ratio [21]: 4.38

- pIC50 [34]: 6.54
- pIC50 [35]: 6.77
SMILES: COC1=C(C(C)C)C(=O)C2=C(O)C(=O)C3=C(C=CCC3(C)C)C2=C1

SMILES: COc1c(C(C)C)cc2c(c1O)[C@@]1(C(=O)O)CCCC(C)(C)[C@@H]1CC2
- pIC50 [38]: 4.76
- pIC50 [39]: 6.12

SMILES: COC(=O)[C@]1(C)CCC[C@]2(C)c3ccc(O)cc3CC[C@@H]12
- pIC50 [1]: 3.32
- Activity [2]: 48.1%
- pIC50 [3]: 4.23
- selectivity ratio [4]: 5.3
- Activity [5]: < 10%
- pIC50 [6]: 4.41
- Activity [7]: < 10%
- Activity [40]: 6.3%
- Activity [8]: 30%
- inhibition [10]: 100%
- selectivity ratio [13]: 12.1
- Activity [14]: 17%
- Activity [15]: < 10%
- Activity [17]: inactive
- Activity [18]: < 10%
- pIC50 [20]: 4.57
- Activity [41]: 0.5%
- selectivity ratio [21]: 17.5
- Activity [22]: < 10%
- Activity [23]: < 10%
- Activity [24]: 41%
- pIC50 [26]: 4.05
- pIC50 [28]: 4.36
- inhibition in vivo at 25 mg/kg [29]: 22%
- Activity [42]: 0.4%
- Activity [43]: 2.3%

Source: ChEMBL document CHEMBL3351618, “Prospects of an alternative treatment against Trypanosoma cruzi based on abietic acid derivatives show promising results in Balb/c mouse model” (Eur J Med Chem, 2015)
